These molecules were tested against protein DCR1 (Mus musculus, UniProt Q91X52) (assay: Dicarbonyl reductase activity assay: substrate specificity and rate constants (NAD(P)H oxidation at 340 nm)). Settings: not given.
Procedure: The enzyme activity assay method is not particularly restricted, and it may be based on the activity assay method for mouse carbonyl reductase (CR) (Eur. J. Biochem. 22, 381-387(1995)). The enzyme used here was an expressed recombinant enzyme. • (a) Substrate specificity: In order to determine the substrate specificity, there may be used a hydrocarbon system including various ketone, aldehyde and ester groups, or an aromatic compound.
• (1) This was assayed under the following conditions. The reaction mixture (total: 2.0 ml) comprised an 80 mM potassium phosphate solution (pH 7.0 or 6.0), 0.1 mM NADPH or NADH and a carbonyl substrate or enzyme (50 µl) (10.1 µg or 3.7 µg of glomerin B). The oxidation rate for NAD(P)H was measured at 340 nm.

Sequence of protein DCR1 (Q91X52 whole entry): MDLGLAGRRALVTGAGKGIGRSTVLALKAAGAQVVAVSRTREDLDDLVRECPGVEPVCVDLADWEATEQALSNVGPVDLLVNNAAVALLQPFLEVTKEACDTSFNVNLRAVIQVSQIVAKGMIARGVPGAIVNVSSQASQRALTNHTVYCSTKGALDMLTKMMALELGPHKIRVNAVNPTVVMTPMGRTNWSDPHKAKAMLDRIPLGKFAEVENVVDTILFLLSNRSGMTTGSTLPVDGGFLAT

Molecule	RA (%) relative activity
CCC(C)=O [2-Butanone]	0%
C[C@]12CCC(=O)C[C@H]1CC[C@@H]1[C@@H]2CC[C@]2(C)C(=O)CC[C@@H]12 [5β-Androstane-3,17-dione]	0.0%
C[C@]12CC[C@@H](O)C[C@H]1CC[C@@H]1[C@@H]2[C@@H](O)C[C@]2(C)[C@@H](C(=O)CO)CC[C@@H]12 [Tetrahydrocorticosterone]	0.0%

Same assay, conditions: Example 5, result in words

Molecule	activity (as substrate)
OC1C=CCCC1 (centres unmarked) [2-cyclohexen-1-ol]	no activity
O[C@H]1CCc2ccccc21 [S-indan-1-ol]	no activity

Same assay, conditions: substrate concentration 20 μM; against a reference of 100 for diacetyl

Molecule	RA (%) relative activity
CC(=O)[C@H]1CC[C@H]2[C@@H]3CC[C@@H]4CC(=O)CC[C@]4(C)[C@H]3CC[C@]12C [5β-Pregnane-3,20-dione]	0.0%
O=C1C=Cc2ccccc2C1=O [1,2-Naphtoquinone]	47%
C[C@]12C[C@H](O)[C@H]3[C@@H](CCC4=CC(=O)CC[C@@]43C)[C@@H]1CC[C@@H]2C(=O)C=O [Corticosterone-21-al]	0.0%
C[C@]12CCC(=O)C=C1CC[C@@H]1[C@@H]2[C@@H](O)C[C@@]2(C)[C@H]1CC[C@]2(O)C(=O)C=O [Cortisol-21-al]	0.0%

Same assay, conditions: substrate concentration 50 μM; against a reference of 100 for diacetyl

Molecule	RA (%) relative activity
CCCCCCCCC=O [1-Nonanal]	0.005%

Same assay, conditions: substrate concentration 100 μM; against a reference of 100 for diacetyl

Molecule	RA (%) relative activity
O=C(C(=O)c1ccccc1)c1ccccc1 [Benzil]	0%

Same assay, conditions: substrate concentration 400 μM; against a reference of 100 for diacetyl

Molecule	RA (%) relative activity
O=C1c2ccccc2C(=O)C1c1ccccc1 [1-Phenyl-1,3-indanedione]	0.6%

Same assay, conditions: substrate concentration 500 μM; against a reference of 100 for diacetyl

Molecule	RA (%) relative activity
CC(=O)C=Cc1ccccc1 [Benzalacetone]	0%
O=C1O[C@H]([C@@H](O)CO)C(=O)C1=O [Dehydroascorbic acid]	0%

Same assay, conditions: substrate concentration 1,000 μM; against a reference of 100 for diacetyl

Molecule	RA (%) relative activity
CC(=O)c1ccc(S(=O)(=O)NC(=O)NC2CCCCC2)cc1 [Acetohexamide]	0%
C[C@@H](O)C=O [D-Lactoaldehyde]	0.6%
Phenyl-2-butanone	0.2%
O=C[C@H](O)[C@@H](O)[C@H](O)[C@H](O)C(=O)O [D-Glucuronate]	0%
O=C1C=CCCC1 [2-Cyclohexen-1-one]	1.3%
CC(=O)CO [Acetol]	0.8%
O=C(O)CCC(=O)C(=O)O [α-Ketoglutaric acid]	0%
Indolecarboaldehyde	0%
COC(=O)CC(C)=O [Methyl acetoacetate]	0.2%
C=CCN1CC[C@]23c4c5ccc(O)c4O[C@H]2C(=O)CC[C@@]3(O)[C@H]1C5 [Naloxone]	0%
O=C(O)C(=O)Cc1ccccc1 [Phenylpyruvic acid]	0.5%
CCC(=O)c1ccccc1 [Propiophenone]	0%
CC(=O)CCC(C)=O [2,5-Hexanedione]	0%
O=C1CCC(=O)CC1 [1,4-Cyclohexanedione]	0%
O=C(O)C(=O)[C@@H](O)[C@H](O)[C@@H](O)CO [2-Ketogulonate]	0%
CCOC(=O)CC(C)=O [Ethyl acetoacetate]	0%
CCCCC[C@H](O)/C=C/[C@H]1[C@H](O)CC(=O)[C@@H]1C/C=C\CCCC(=O)O [PGE2]	0.0%

Same assay, conditions: substrate concentration 3,000 μM; against a reference of 100 for diacetyl

Molecule	RA (%) relative activity
O=Cc1cccc([N+](=O)[O-])c1 [3-Nitrobenzaldehyde]	3.3%

Same assay, conditions: substrate concentration 5,000 μM; against a reference of 100 for diacetyl

Molecule	RA (%) relative activity
CC(=O)C(=O)O [Pyruvic acid]	0%
CC=O [Acetaldehyde]	1.8%
O=CC=O [Glyoxal]	0%
CCC=O [1-Propanal]	0.5%
O=CCO [Glycolaldehyde]	0.9%

Same assay, conditions: substrate concentration 200,000 μM; against a reference of 100 for diacetyl

Molecule	RA (%) relative activity
O=C[C@H](O)[C@@H](O)[C@H](O)[C@H](O)CO [D-Glucose]	0%
